According to patent publication US6433150B1, “Anthracycline analogues bearing latent alkylating substituents” (Board of Regents, The University of Texas System, priority 1990, dated 2002):
Read-outs that look alike come from different tables or passages of the source.

What was measured:
[1] = system: P388; conditions: cited from earlier work
[2] = system: CEM cells (human T-lymphoblastic cell line); assay: Cytotoxicity studies, CEM cells; type: cell-based; conditions: for IC50: six days incubation with drug at 37° C.
[3] = system: CEM (VLB) cells (human T-lymphoblastic cell line resistant to Velban (vinblastine)); assay: Cytotoxicity studies, CEM (VLB) cells; type: cell-based; conditions: for IC50: six days incubation with drug at 37° C., Velban (vinblastine) resistant line; for Resistance index ([CEM(VLB)]/[CEM]): ratio of IC50 values
[4] = system: 8226R40 human myeloma cells; assay: Potency to 8226R40 human myeloma cells; type: cell-based
[5] = Solubility in aqueous media; type: physicochemical
Source text: (§1) To the best of applicants' knowledge, dialdehyde monoacetals such as 10 have not been reported previously. [These should be versatile synthetons in organic synthesis since the acetal ester groups can be cleaved under extremely mild conditions (weak base or esterase activity)]. Condensation of 10 with doxorubicin, 11, in the presence of NaCNBH3 generated 2a directly in >50% yield. Evidence for the structure of 2a was obtained by ^1H and COSY NMR, and by mass spectrometry.

[6] = Stability at neutral pH; type: physicochemical
Source text: as §1

COc1cccc2c1C(=O)c1c(O)c3c(c(O)c1C2=O)C[C@@](O)(C(C)=O)C[C@@H]3O[C@H]1C[C@H](N2CCOCC2)[C@H](O)[C@H](C)O1 [3′-Deamino-3-(4-morpholinyl)daunorubicin]
T/C value against P388 [1]: 166%
active dose relative to the dose of doxorubicin [1]: one-fortieth

COc1cccc2c1C(=O)c1c(O)c3c(c(O)c1C2=O)C[C@@](O)(C(=O)CO)C[C@@H]3O[C@H]1C[C@H](N)[C@H](O)[C@H](C)O1 [Doxorubicin, reference compound]
IC50 ([2]; Homo sapiens, CCRF-CEM, 144 h): 10 nM
IC50 ([3]; Homo sapiens, CEM-VLB, 144 h): 1340 nM
Resistance index ([CEM(VLB)]/[CEM]) [3]: 134
IC50 ([4]; Homo sapiens): 600 nM
T/C value against P388 [1]: 160%

COc1cccc2c1C(=O)c1c(O)c3c(c(O)c1C2=O)C[C@@](O)(C(=O)CO)C[C@@H]3O[C@H]1C[C@H](NCCCCC(OC(C)=O)OC(C)=O)[C@H](O)[C@H](C)O1.Cl [Compound 2a, N-(5,5-Diacetoxypentyl) doxorubicin hydrochloride]
times more toxic to the parent CEM cells than doxorubicin ([2]; relative to doxorubicin): 60 times
IC50 [2]: 0.15 nM
cross resistance against the velban resistant mutant ([3]; compared with doxorubicin): markedly reduced cross resistance
Resistance index ([CEM(VLB)]/[CEM]) [3]: 6
IC50 [3]: 1 nM
IC50 [4]: 1.5 nM
times more potent to 8226R40 human myeloma cells than doxorubicin ([4]; relative to doxorubicin): 400 times
solubility in aqueous media [5]: freely soluble
stability at neutral pH [6]: stable

N-(2,2-Diacetoxyethyloxyethyl) doxorubicin HCl [Compound 2b]
IC50 [2]: 3 nM
Resistance index ([CEM(VLB)]/[CEM]) [3]: 5
IC50 [3]: 15 nM
